Article PMC7200681, “The calcitonin-like system is an ancient regulatory system of biomineralization” (Scientific Reports, 2020)
pEC50: −log10 of the molar value.

Key:
[1] = system: mussel CALCRIIc; assay: Calcium mobilization assay (apoaequorin bioluminescence), dose-response, HEK 293 cells expressing mussel CALCRIIc; format: cell-based, Mytilus coruscus; settings: HEK 293/apoaequorin, 1 μM to 0.01 nM
From the text: The complete sequence of the Mediterranean mussel CALCRIa was amplified using specific primers (Table 1) from cDNA of a tissue mixture (mantle, adductor muscle, gills, gonads) using a proofreading DNA polymerase (iProof BIORAD, Portugal) and cloned into the pGEMT-easy vector (PROMEGA, Spain). The Mediterranean mussel CALCRIIa transcript that was found in the mantle transcriptome was incomplete and lacked the N-terminus (by comparisons with the hard-shelled mussel homologue) and so the remaining sequence (from 1–393 bp) was deduced from the hard-shelled mussel homologue receptor and the receptor was synthesised and supplied by GENESCRIPT (USA). The complete transcripts for mussel CALCRIc, CALCRIIb and CALCRIIc were only found in the hard-shelled mussel mantle transcriptome and homologues were only found in the Mediterranean mussel genome as they were absent from the species mantle transcriptome and so they were also synthesised and supplied by GENESCRIPT (USA) using the hard-shelled mussel receptor sequences as template. […]
Mammalian cell cultures and transfections followed the methodology described by[89],[90]. […] Cell recovery was monitored daily and the medium was changed every two days until no cell death was observed. […]
(§1) HEK293 cells stably expressing five mussel receptors (CALCRIa, CALCRIc, CALCRIIa, CALCRIIb and CALCRIIc) were stimulated with the two mussel peptides and the vertebrate (human and salmon) calcitonins. Receptor activation was assessed in vitro by measuring two intracellular signalling pathways: a) production of cAMP and b) mobilization of calcium (Ca^2+). The cellular response was initially assessed using 10 μM of each peptide. […]
Stable cell lines expressing the mussel receptors were transiently co-transfected with the mitochondrial targeted apo-aequorin protein cloned in pcDNA3.1. Two days after transfection cells were washed, counted and resuspended in 1 ml of DMEM /F12 Ham (without phenol red)/0.1% BSA supplemented with 2 µM coelenterazine (SIGMA-ALDRICH). […]

[2] = system: mussel CALCRIa; assay: Calcium mobilization assay (apoaequorin bioluminescence), dose-response, HEK 293 cells expressing mussel CALCRIa; format: cell-based, Mytilus galloprovincialis; settings: for pEC50: HEK 293 cells stably expressing receptor, co-transfected with apoaequorin, peptide 1 μM to 0.01 nM, three independent assays in duplicate, read-out: EC50, activation of mussel CALCRIa (intracellular calcium mobilization); for Activation of mussel CALCRIa in dose-response analysis (in words): calcium mobilization, HEK 293/apoaequorin, 1 μM to 0.01 nM
From the text: (§2) The complete sequence of the Mediterranean mussel CALCRIa was amplified using specific primers (Table 1) from cDNA of a tissue mixture (mantle, adductor muscle, gills, gonads) using a proofreading DNA polymerase (iProof BIORAD, Portugal) and cloned into the pGEMT-easy vector (PROMEGA, Spain). The Mediterranean mussel CALCRIIa transcript that was found in the mantle transcriptome was incomplete and lacked the N-terminus (by comparisons with the hard-shelled mussel homologue) and so the remaining sequence (from 1–393 bp) was deduced from the hard-shelled mussel homologue receptor and the receptor was synthesised and supplied by GENESCRIPT (USA). The complete transcripts for mussel CALCRIc, CALCRIIb and CALCRIIc were only found in the hard-shelled mussel mantle transcriptome and homologues were only found in the Mediterranean mussel genome as they were absent from the species mantle transcriptome and so they were also synthesised and supplied by GENESCRIPT (USA) using the hard-shelled mussel receptor sequences as template. The mussel CALCRIb transcript was incomplete and lacked both N and C-terminal regions and it was not possible to obtain the complete transcript either by searching both mussels mantle transcriptomes or the Mediterranean mussel genome and so it was not produced. All synthetized receptors were provided in the pUC57 cloning vector by the company and receptor codon usage was optimized to favour a high level of expression in mammalian cells.
(§3) Mammalian cell cultures and transfections followed the methodology described by[89],[90]. Mammalian HEK293 cells (ECACC, UK) were used and they were maintained in complete Dulbecco’s modified Eagle’s medium (DMEM, 4.5 g/l glucose, 110 mg/l sodium pyruvate and L-glutamine, SIGMA-ALDRICH, Spain) supplemented with 10% sterile foetal bovine serum (FBS), 0.1% penicillin: streptomycin antibiotic mix (10,000 U:10 mg/ml, Sigma) and 250 μg /ml sterile filtered 1:100 amphotericin B solution (SIGMA-ALDRICH) in a humid 5% CO2 incubator (HERAEUS, Portugal) at 37 °C. On the day prior to transfection, 2–3 × 10^5 HEK293 cells were seeded on 6 well plates (SARSTEDT, Portugal) and transfected with Fugene HD transfection reagent (2 DNA: 4 Fugene ratio, PROMEGA) following the manufacturer’s protocol. Seventy-two hours after transfection, 800 μg/ml of the antibiotic Geneticin (SIGMA-ALDRICH) was added to the medium to select and isolate stable receptor cell lines. Cell recovery was monitored daily and the medium was changed every two days until no cell death was observed. […]
as §1
(§4) Stable cell lines expressing the mussel receptors were transiently co-transfected with the mitochondrial targeted apo-aequorin protein cloned in pcDNA3.1. Two days after transfection cells were washed, counted and resuspended in 1 ml of DMEM /F12 Ham (without phenol red)/0.1% BSA supplemented with 2 µM coelenterazine (SIGMA-ALDRICH). […] The injector system of the Biotek Synergy 4 microplate reader (USA) was used to inject 50 µl of the cell suspensions into wells containing 50 μl of the diluted peptide in DMEM / F12 Ham / 0.1% BSA. […]

[3] = system: mussel CALCRIIa; assay: Calcium mobilization assay (apoaequorin bioluminescence), dose-response, HEK 293 cells expressing mussel CALCRIIa; format: cell-based, Mytilus galloprovincialis; settings: for pEC50: HEK 293 cells stably expressing receptor, co-transfected with apoaequorin, peptide 1 μM to 0.01 nM, three independent assays in duplicate, read-out: EC50, activation of mussel CALCRIIa (intracellular calcium mobilization); for Activation of mussel CALCRIIa in dose-response analysis (in words): calcium mobilization, HEK 293/apoaequorin, 1 μM to 0.01 nM
From the text: as §2, §3, §1, §4

[4] = system: mussel CALCR-like (CALCRIa, CALCRIc, CALCRIIa, CALCRIIb and CALCRIIc); assay: cAMP assay in HEK 293 cells stably expressing the mussel receptors; format: cell-based; settings: 10 µM peptide, 30 min at 37 °C, 1 mM IBMX; % of Forskolin (10uM) response; single experiment in triplicate (Supplementary Figure 7A)
Method: Mammalian cell cultures and transfections followed the methodology described by[89],[90]. Mammalian HEK293 cells (ECACC, UK) were used and they were maintained in complete Dulbecco’s modified Eagle’s medium (DMEM, 4.5 g/l glucose, 110 mg/l sodium pyruvate and L-glutamine, SIGMA-ALDRICH, Spain) supplemented with 10% sterile foetal bovine serum (FBS), 0.1% penicillin: streptomycin antibiotic mix (10,000 U:10 mg/ml, Sigma) and 250 μg /ml sterile filtered 1:100 amphotericin B solution (SIGMA-ALDRICH) in a humid 5% CO2 incubator (HERAEUS, Portugal) at 37 °C. […] Cell recovery was monitored daily and the medium was changed every two days until no cell death was observed. […]
as §1
The amount of cAMP produced was determined using a competitive immunoassay with a cryptate labelled anti-cAMP antibody (CISBIO, France) and followed the methodology describe by[89],[90]. […]

| Compound | Activation of mussel CALCRIIc in dose-response analysis (in words) [1] | pEC50 [2] | Activation of mussel CALCRIa in dose-response analysis (in words) [2] | pEC50 [3] | Activation of mussel CALCRIIa in dose-response analysis (in words) [3] | Stimulation of all mussel receptors via the cAMP pathway (in words) [4] |
| --- | --- | --- | --- | --- | --- | --- |
| CC[C@H](C)[C@H](NC(=O)[C@H](C)NC(=O)[C@@H](NC(=O)[C@H](CCC(N)=O)NC(=O)[C@@H]1CCCN1C(=O)[C@H](Cc1ccccc1)NC(=O)[C@@H](NC(=O)[C@H](Cc1c[nH]cn1)NC(=O)[C@H](Cc1ccccc1)NC(=O)[C@H](CCCCN)NC(=O)[C@H](CC(N)=O)NC(=O)[C@H](Cc1ccccc1)NC(=O)[C@H](CC(=O)O)NC(=O)[C@H](CCC(N)=O)NC(=O)[C@@H](NC(=O)[C@H](Cc1ccc(O)cc1)NC(=O)[C@@H](NC(=O)CNC(=O)[C@H](CC(C)C)NC(=O)[C@H](CCSC)NC(=O)[C@@H]1CSSC[C@H](N)C(=O)NCC(=O)N[C@@H](CC(N)=O)C(=O)N[C@@H](CC(C)C)C(=O)N[C@@H](CO)C(=O)N[C@@H]([C@@H](C)O)C(=O)N1)[C@@H](C)O)[C@@H](C)O)[C@@H](C)O)[C@@H](C)O)C(=O)NCC(=O)N[C@H](C(=O)NCC(=O)N[C@@H](C)C(=O)N1CCC[C@H]1C(N)=O)C(C)C [human calcitonin, calcitonin] | but not CALCRIIc | 8.02 | activated | 6.30 | activated | stimulated |
| CC(C)C[C@H](NC(=O)[C@H](CCCCN)NC(=O)CNC(=O)[C@H](CC(C)C)NC(=O)[C@@H](NC(=O)[C@@H]1CSSC[C@H](N)C(=O)N[C@@H](CO)C(=O)N[C@@H](CC(N)=O)C(=O)N[C@@H](CC(C)C)C(=O)N[C@@H](CO)C(=O)N[C@@H]([C@@H](C)O)C(=O)N1)C(C)C)C(=O)N[C@@H](CO)C(=O)N[C@@H](CCC(N)=O)C(=O)N[C@@H](CCC(=O)O)C(=O)N[C@@H](CC(C)C)C(=O)N[C@@H](Cc1c[nH]cn1)C(=O)N[C@@H](CCCCN)C(=O)N[C@@H](CC(C)C)C(=O)N[C@@H](CCC(N)=O)C(=O)N[C@H](C(=O)N[C@@H](Cc1ccc(O)cc1)C(=O)N1CCC[C@H]1C(=O)N[C@@H](CCCNC(=N)N)C(=O)N[C@H](C(=O)N[C@@H](CC(N)=O)C(=O)N[C@H](C(=O)NCC(=O)N[C@@H](CO)C(=O)NCC(=O)N[C@H](C(=O)N1CCC[C@H]1C(N)=O)[C@@H](C)O)[C@@H](C)O)[C@@H](C)O)[C@@H](C)O [salmon calcitonin, calcitonin] | but not CALCRIIc | 8.30 | activated | 7.85 | activated | stimulated |
